{"source": "patent US9273040B2", "about": "(Merck Sharp & Dohme Corp., priority 2011, dated 2016)", "assay_type_in_all_cases": "cell-based", "key": {"[1]": {"target": "T1, human Nav1.5 channels stably expressed in HEK 293 cells (Homo sapiens, UniProt Q14524)", "T1 construct": "expressed in transfected cells", "T1 sequence (Q14524 whole entry)": "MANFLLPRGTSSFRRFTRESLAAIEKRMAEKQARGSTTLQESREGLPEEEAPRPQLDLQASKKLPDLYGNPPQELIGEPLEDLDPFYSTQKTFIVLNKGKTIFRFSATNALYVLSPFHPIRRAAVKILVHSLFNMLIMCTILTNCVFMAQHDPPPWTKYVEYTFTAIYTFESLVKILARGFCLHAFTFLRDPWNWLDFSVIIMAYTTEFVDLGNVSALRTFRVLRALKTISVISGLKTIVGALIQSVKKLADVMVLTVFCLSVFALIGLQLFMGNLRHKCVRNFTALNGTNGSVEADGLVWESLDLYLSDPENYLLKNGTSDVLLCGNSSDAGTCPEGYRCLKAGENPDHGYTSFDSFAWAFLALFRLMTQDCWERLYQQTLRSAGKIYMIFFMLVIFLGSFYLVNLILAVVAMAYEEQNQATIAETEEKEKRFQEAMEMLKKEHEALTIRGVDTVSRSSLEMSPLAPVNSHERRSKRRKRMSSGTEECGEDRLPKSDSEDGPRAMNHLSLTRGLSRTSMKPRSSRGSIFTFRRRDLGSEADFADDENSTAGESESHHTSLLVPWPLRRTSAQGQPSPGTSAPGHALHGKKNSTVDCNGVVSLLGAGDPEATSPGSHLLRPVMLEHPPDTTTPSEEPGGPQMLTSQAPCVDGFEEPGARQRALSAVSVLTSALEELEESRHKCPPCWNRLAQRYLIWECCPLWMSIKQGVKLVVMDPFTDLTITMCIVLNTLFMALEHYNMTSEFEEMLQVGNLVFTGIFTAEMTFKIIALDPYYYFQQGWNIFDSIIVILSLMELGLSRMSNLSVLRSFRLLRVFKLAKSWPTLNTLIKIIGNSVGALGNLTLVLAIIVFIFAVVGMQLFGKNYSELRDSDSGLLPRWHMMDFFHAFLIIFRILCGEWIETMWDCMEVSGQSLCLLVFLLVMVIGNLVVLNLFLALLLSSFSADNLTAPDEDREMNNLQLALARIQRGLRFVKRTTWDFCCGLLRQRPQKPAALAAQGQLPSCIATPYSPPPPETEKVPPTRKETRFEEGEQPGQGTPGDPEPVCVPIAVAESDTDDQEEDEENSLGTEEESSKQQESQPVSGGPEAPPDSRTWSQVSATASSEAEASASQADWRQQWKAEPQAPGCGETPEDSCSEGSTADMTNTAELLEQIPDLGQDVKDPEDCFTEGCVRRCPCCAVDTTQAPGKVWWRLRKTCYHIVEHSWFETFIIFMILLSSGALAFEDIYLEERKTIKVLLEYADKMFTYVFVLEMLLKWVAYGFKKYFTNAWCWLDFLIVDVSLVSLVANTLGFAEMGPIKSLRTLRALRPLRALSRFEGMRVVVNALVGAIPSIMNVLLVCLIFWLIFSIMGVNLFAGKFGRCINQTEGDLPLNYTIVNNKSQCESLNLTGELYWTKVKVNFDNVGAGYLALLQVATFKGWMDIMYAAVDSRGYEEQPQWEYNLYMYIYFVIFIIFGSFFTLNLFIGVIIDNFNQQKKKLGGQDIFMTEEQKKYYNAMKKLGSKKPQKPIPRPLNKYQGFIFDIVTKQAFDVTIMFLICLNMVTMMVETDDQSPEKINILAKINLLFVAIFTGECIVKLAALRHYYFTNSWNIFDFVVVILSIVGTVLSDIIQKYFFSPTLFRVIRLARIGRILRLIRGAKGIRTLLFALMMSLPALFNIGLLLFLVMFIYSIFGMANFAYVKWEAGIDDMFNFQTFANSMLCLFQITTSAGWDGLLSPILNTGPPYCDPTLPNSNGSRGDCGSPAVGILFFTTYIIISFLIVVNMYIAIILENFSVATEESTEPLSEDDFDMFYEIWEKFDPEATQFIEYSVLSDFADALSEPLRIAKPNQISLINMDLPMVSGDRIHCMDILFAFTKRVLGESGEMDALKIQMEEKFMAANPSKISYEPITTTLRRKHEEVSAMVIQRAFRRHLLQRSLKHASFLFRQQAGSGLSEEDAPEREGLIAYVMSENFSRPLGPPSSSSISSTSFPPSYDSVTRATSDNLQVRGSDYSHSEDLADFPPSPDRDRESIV", "experiment": "IonWorks Quattro automated patch-clamp, sodium current, inactivated state block", "details": "selectivity over Nav1.5", "description": "(§1) Compounds were tested on human Nav1.7 and Nav1.5 channels stably expressed in HEK 293 cells. […] Cells were sealed on a planar substrate using the Population Patch Plate (PPC) technology. Electrical access was obtained using both nystatin and amphotericin. A double-pulse protocol was used for the determination of IC50 values for inactivated state block. Nav1.7 and Nav1.5 expressing cells were voltage clamped at −100 mV and −110 mV, respectively. A depolarizing prepulse to −10 mV (Nav1.7) or −30 mV (Nav1.5) for 1000 ms followed by a 10 ms repolarization to −100 mV (Nav1.7) or −110 mV (Nav1.5) was given to generate fractional channel inactivation of ˜50%, followed by a 10 ms test pulse to −10 mV (Nav1.7) or −30 mV (Nav1.5) to measure peak current in control conditions and after compound addition. The following recording solutions were used (mM). External: 150 NaCl, 2 CaCl2, 5 KCl, 1 Mg Cl2, 10 HEPES, 12 Dextrose; internal: 120 CsF, 30 CsCl, 10 EGTA, 5 HEPES, 5 NaF, 2 MgCl2.\n(§2) For all electrophysiology experiments, offline analysis was used to correct for current rundown and to determine percent inhibition as a function of drug concentration. IC50 values were determined by fitting to the Hill equation."}, "[2]": {"target": "T2, human Nav1.7 channels stably expressed in HEK 293 cells (Homo sapiens, UniProt Q15858)", "T2 construct": "expressed in transfected cells", "T2 sequence (Q15858 whole entry)": "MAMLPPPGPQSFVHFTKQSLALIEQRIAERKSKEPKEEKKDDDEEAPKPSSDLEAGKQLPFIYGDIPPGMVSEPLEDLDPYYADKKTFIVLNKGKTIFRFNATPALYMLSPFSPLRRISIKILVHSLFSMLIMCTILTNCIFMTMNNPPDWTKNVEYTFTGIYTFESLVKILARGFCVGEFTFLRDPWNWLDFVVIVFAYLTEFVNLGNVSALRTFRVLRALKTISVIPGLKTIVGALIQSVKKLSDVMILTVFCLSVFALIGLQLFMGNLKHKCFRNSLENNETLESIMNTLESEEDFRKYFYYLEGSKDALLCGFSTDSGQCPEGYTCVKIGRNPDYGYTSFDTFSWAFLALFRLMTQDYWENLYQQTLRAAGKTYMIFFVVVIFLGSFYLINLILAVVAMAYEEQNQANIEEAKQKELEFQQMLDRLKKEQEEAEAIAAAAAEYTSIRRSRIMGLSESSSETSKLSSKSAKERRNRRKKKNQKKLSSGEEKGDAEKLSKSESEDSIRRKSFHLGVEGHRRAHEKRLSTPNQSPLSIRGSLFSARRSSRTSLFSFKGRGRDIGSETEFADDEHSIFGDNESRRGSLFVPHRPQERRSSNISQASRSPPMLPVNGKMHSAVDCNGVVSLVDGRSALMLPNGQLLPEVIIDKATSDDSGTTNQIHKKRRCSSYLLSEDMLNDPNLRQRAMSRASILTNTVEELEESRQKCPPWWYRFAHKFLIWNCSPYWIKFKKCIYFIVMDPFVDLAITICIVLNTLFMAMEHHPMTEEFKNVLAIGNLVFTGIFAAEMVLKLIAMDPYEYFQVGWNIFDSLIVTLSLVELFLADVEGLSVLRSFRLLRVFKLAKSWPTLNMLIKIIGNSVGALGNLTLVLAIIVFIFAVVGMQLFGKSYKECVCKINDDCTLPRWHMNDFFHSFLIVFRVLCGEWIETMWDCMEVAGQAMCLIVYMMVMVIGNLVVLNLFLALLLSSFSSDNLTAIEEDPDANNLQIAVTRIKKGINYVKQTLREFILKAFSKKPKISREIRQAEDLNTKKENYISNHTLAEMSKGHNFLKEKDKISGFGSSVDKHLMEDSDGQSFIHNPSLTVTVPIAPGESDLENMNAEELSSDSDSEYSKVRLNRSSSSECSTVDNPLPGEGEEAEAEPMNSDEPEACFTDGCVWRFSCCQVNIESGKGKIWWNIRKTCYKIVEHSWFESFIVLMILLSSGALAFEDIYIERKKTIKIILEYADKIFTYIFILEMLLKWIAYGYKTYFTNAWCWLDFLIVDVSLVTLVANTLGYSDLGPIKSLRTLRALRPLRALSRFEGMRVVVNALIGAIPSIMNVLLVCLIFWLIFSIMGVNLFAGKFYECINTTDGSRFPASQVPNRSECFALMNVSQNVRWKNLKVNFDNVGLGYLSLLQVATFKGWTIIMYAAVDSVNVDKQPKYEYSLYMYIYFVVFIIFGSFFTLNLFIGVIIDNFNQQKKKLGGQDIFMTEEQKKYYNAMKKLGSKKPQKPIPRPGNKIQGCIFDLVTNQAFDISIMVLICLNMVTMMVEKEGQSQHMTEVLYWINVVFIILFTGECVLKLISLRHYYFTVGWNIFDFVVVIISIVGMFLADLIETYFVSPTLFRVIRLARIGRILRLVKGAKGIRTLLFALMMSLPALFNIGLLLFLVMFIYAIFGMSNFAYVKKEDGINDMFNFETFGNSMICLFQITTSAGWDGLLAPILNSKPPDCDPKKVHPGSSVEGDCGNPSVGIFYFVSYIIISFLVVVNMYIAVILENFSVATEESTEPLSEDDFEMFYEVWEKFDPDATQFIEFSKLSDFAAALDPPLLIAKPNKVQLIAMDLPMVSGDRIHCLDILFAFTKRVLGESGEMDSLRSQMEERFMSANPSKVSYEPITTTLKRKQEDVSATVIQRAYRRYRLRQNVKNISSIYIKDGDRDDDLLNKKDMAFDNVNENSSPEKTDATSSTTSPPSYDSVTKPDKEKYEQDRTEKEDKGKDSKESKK", "experiment": "IonWorks Quattro automated patch-clamp, sodium current, inactivated state block", "details": "read-out: potency for the Nav 1.7 sodium ion channel (as measured by IonWorks)", "description": "as §1, §2"}, "[3]": {"target": "T1, human Nav1.5 channels stably expressed in HEK 293 cells", "experiment": "PatchXpress 7000 automated patch-clamp, sodium current", "details": "selectivity over Nav1.5", "method_in_brief": "(§3)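 IC50 values came from Hill-equation fits of rundown-corrected inhibition. PatchXpress recordings at 22° C held cells 20 mV negative to V0.5 inact and applied 10 Hz trains of 30 ms steps to −20 mV (Nav1.7) or an 8000 ms prepulse 7 mV positive to V0.5 inact. […]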"}, "[4]": {"target": "T2, human Nav1.7 channels stably expressed in HEK 293 cells", "experiment": "PatchXpress 7000 automated patch-clamp, sodium current", "details": "22° C., read-out: potency for the Nav 1.7 sodium ion channel (as measured by PatchXpress)", "method_in_brief": "as §3"}}}
{"smiles": "O=c1oc2cc(S(=O)(=O)Nc3ncns3)ccc2n1Cc1ccccc1", "note": "[Compound 1-10, 3-benzyl-2-oxo-N-1,2,4-thiadiazol-5-yl-2,3-dihydro-1,3-benzoxazole-6-sulfonamide]", "values": [{"measurement": "ratio of Nav 1.5:Nav 1.7 potency, determined by IonWorks measurement", "setting": "[1]", "result": "> 41"}, {"measurement": "IC50", "setting": "[2]", "result": 803, "unit": "nM"}, {"measurement": "ratio of Nav 1.5:Nav 1.7 potency, determined by PatchXpress measurement", "setting": "[3]", "result": "> 62"}, {"measurement": "IC50", "setting": "[4]", "result": 486, "unit": "nM"}]}
{"smiles": "NCc1ccc(Cl)cc1Cn1c(=O)oc2cc(S(=O)(=O)Nc3ncns3)ccc21", "note": "[Compound 1-15, 3-[2-(aminomethyl)-5-chlorobenzyl]-2-oxo-N-1,2,4-thiadiazol-5-yl-2,3-dihydro-1,3-benzoxazole-6-sulfonamide]", "values": [{"measurement": "ratio of Nav 1.5:Nav 1.7 potency, determined by IonWorks measurement", "setting": "[1]", "result": "> 55"}, {"measurement": "IC50", "setting": "[2]", "result": 605, "unit": "nM"}]}
{"smiles": "O=c1oc2cc(S(=O)(=O)Nc3ncns3)ccc2n1Cc1cccc2c1CCNC2", "note": "[Compound 1-16, 2-oxo-3-(1,2,3,4-tetrahydroisoquinolin-5-ylmethyl)-N-1,2,4-thiadiazol-5-yl-2,3-dihydro-1,3-benzoxazole-6-sulfonamide]", "values": [{"measurement": "IC50", "setting": "[2]", "result": 1690, "unit": "nM"}, {"measurement": "ratio of Nav 1.5:Nav 1.7 potency, determined by PatchXpress measurement", "setting": "[3]", "result": "> 9"}, {"measurement": "IC50", "setting": "[4]", "result": 3210, "unit": "nM"}]}
{"smiles": "O=c1oc2cc(S(=O)(=O)Nc3ncns3)ccc2n1Cc1cccc2ccncc12", "note": "[Compound 1-17, 3-(isoquinolin-8-ylmethyl)-2-oxo-N-1,2,4-thiadiazol-5-yl-2,3-dihydro-1,3-benzoxazole-6-sulfonamide]", "values": [{"measurement": "ratio of Nav 1.5:Nav 1.7 potency, determined by IonWorks measurement", "setting": "[1]", "result": 65}, {"measurement": "IC50", "setting": "[2]", "result": 216, "unit": "nM"}]}
{"smiles": "O=c1oc2cc(S(=O)(=O)Nc3ncns3)ccc2n1Cc1ccccc1C1=CCCNC1", "note": "[Compound 3-6, 2-oxo-3-[2-(1,2,5,6-tetrahydropyridin-3-yl)benzyl]-N-1,2,4-thiadiazol-5-yl-2,3-dihydro-1,3-benzoxazole-6-sulfonamide]", "values": [{"measurement": "IC50", "setting": "[2]", "result": 287, "unit": "nM"}, {"measurement": "ratio of Nav 1.5:Nav 1.7 potency, determined by PatchXpress measurement", "setting": "[3]", "result": "> 91"}, {"measurement": "IC50", "setting": "[4]", "result": 329, "unit": "nM"}]}
{"smiles": "O=c1oc2cc(S(=O)(=O)Nc3ncns3)ccc2n1Cc1ccccc1-c1ccccc1N1CCNCC1", "note": "[Compound 3-9, 2-oxo-3-[(2′-piperazin-1-ylbiphenyl-2-yl)methyl]-N-1,2,4-thiadiazol-5-yl-2,3-dihydro-1,3-benzoxazole-6-sulfonamide]", "values": [{"measurement": "ratio of Nav 1.5:Nav 1.7 potency, determined by IonWorks measurement", "setting": "[1]", "result": "> 59"}, {"measurement": "IC50", "setting": "[2]", "result": 563, "unit": "nM"}]}
{"smiles": "O=c1oc2cc(S(=O)(=O)Nc3ncns3)ccc2n1Cc1ccccc1-c1ccnc(CN2CCCCC2)c1", "note": "[Compound 3-10, 2-oxo-3-{2-[2-(piperidin-1-ylmethyl)pyridin-4-yl]benzyl}-N-1,2,4-thiadiazol-5-yl-2,3-dihydro-1,3-benzoxazole-6-sulfonamide]", "values": [{"measurement": "IC50", "setting": "[2]", "result": 1740, "unit": "nM"}]}
{"smiles": "O=c1oc2cc(S(=O)(=O)Nc3ncns3)ccc2n1Cc1cccc(-c2ccc3c(c2)CNCC3)c1", "note": "[Compound 3-12, 2-oxo-3-[3-(1,2,3,4-tetrahydroisoquinolin-7-yl)benzyl]-N-1,2,4-thiadiazol-5-yl-2,3-dihydro-1,3-benzoxazole-6-sulfonamide]", "values": [{"measurement": "IC50", "setting": "[2]", "result": 287, "unit": "nM"}, {"measurement": "ratio of Nav 1.5:Nav 1.7 potency, determined by PatchXpress measurement", "setting": "[3]", "result": 55}, {"measurement": "IC50", "setting": "[4]", "result": 545, "unit": "nM"}]}
{"smiles": "O=c1oc2cc(S(=O)(=O)Nc3ncns3)ccc2n1Cc1cccc(-c2cccc3c2CNCC3)c1", "note": "[Compound 3-13, 2-oxo-3-[3-(1,2,3,4-tetrahydroisoquinolin-8-yl)benzyl]-N-1,2,4-thiadiazol-5-yl-2,3-dihydro-1,3-benzoxazole-6-sulfonamide]", "values": [{"measurement": "ratio of Nav 1.5:Nav 1.7 potency, determined by IonWorks measurement", "setting": "[1]", "result": "> 83"}, {"measurement": "IC50", "setting": "[2]", "result": 395, "unit": "nM"}]}
{"smiles": "O=c1oc2cc(S(=O)(=O)Nc3ncns3)ccc2n1Cc1cccc(-c2cccc3c2CCNC3)c1", "note": "[Compound 3-14, 2-oxo-3-[3-(1,2,3,4-tetrahydroisoquinolin-5-yl)benzyl]-N-1,2,4-thiadiazol-5-yl-2,3-dihydro-1,3-benzoxazole-6-sulfonamide]", "values": [{"measurement": "ratio of Nav 1.5:Nav 1.7 potency, determined by IonWorks measurement", "setting": "[1]", "result": 35}, {"measurement": "IC50", "setting": "[2]", "result": 430, "unit": "nM"}]}
{"smiles": "O=c1oc2cc(S(=O)(=O)Nc3ncns3)ccc2n1Cc1cccc(C2=CCCNC2)c1", "note": "[Compound 3-15, 2-oxo-3-[3-(1,2,5,6-tetrahydropyridin-3-yl)benzyl]-N-1,2,4-thiadiazol-5-yl-2,3-dihydro-1,3-benzoxazole-6-sulfonamide]", "values": [{"measurement": "IC50", "setting": "[2]", "result": 646, "unit": "nM"}]}
{"smiles": "O=c1oc2cc(S(=O)(=O)Nc3ncns3)ccc2n1Cc1cccc(C2=CCNCC2)c1", "note": "[Compound 3-16, 2-oxo-3-[3-(1,2,3,6-tetrahydropyridin-4-yl)benzyl]-N-1,2,4-thiadiazol-5-yl-2,3-dihydro-1,3-benzoxazole-6-sulfonamide]", "values": [{"measurement": "ratio of Nav 1.5:Nav 1.7 potency, determined by IonWorks measurement", "setting": "[1]", "result": "> 43"}, {"measurement": "IC50", "setting": "[2]", "result": 759, "unit": "nM"}]}
{"smiles": "O=c1oc2cc(S(=O)(=O)Nc3ncns3)ccc2n1Cc1cccc(C2=CCNCCC2)c1", "note": "[Compound 3-17, 2-oxo-3-[3-(2,5,6,7-tetrahydro-1H-azepin-4-yl)benzyl]-N-1,2,4-thiadiazol-5-yl-2,3-dihydro-1,3-benzoxazole-6-sulfonamide]", "values": [{"measurement": "ratio of Nav 1.5:Nav 1.7 potency, determined by IonWorks measurement", "setting": "[1]", "result": "> 40"}, {"measurement": "IC50", "setting": "[2]", "result": 827, "unit": "nM"}]}
{"smiles": "O=c1oc2cc(S(=O)(=O)Nc3ncns3)ccc2n1Cc1cccc(C2=CC3CCC(C2)N3)c1", "note": "(stereo not shown) [Compound 3-18, 3-[3-(8-azabicyclo[3.2.1]oct-2-en-3-yl)benzyl]-2-oxo-N-1,2,4-thiadiazol-5-yl-2,3-dihydro-1,3-benzoxazole-6-sulfonamide]", "values": [{"measurement": "IC50", "setting": "[2]", "result": 1330, "unit": "nM"}]}
{"smiles": "C[C@@H](c1ccccc1)n1c(=O)oc2cc(S(=O)(=O)Nc3ncns3)ccc21", "note": "[Compound 4-8, 2-oxo-3-[(1S)-1-phenylethyl]-N-1,2,4-thiadiazol-5-yl-2,3-dihydro-1,3-benzoxazole-6-sulfonamide]", "values": [{"measurement": "ratio of Nav 1.5:Nav 1.7 potency, determined by IonWorks measurement", "setting": "[1]", "result": "> 22"}, {"measurement": "IC50", "setting": "[2]", "result": 1480, "unit": "nM"}]}
{"smiles": "O=c1oc2cc(S(=O)(=O)Nc3ncns3)ccc2n1C(c1ccccc1)c1ncco1", "note": "(stereo not shown) [Compound 4-10, 3-[1,3-oxazol-2-yl(phenyl)methyl]-2-oxo-N-1,2,4-thiadiazol-5-yl-2,3-dihydro-1,3-benzoxazole-6-sulfonamide]", "values": [{"measurement": "IC50", "setting": "[2]", "result": 1330, "unit": "nM"}, {"measurement": "ratio of Nav 1.5:Nav 1.7 potency, determined by PatchXpress measurement", "setting": "[3]", "result": "> 47"}, {"measurement": "IC50", "setting": "[4]", "result": 643, "unit": "nM"}]}
{"smiles": "O=c1oc2cc(S(=O)(=O)Nc3ncns3)ccc2n1C(c1ccccc1)C1CC1", "note": "(stereo not shown) [Compound 4-12, 3-[cyclopropyl(phenyl)methyl]-2-oxo-N-1,2,4-thiadiazol-5-yl-2,3-dihydro-1,3-benzoxazole-6-sulfonamide]", "values": [{"measurement": "ratio of Nav 1.5:Nav 1.7 potency, determined by IonWorks measurement", "setting": "[1]", "result": "> 32"}, {"measurement": "IC50", "setting": "[2]", "result": 1040, "unit": "nM"}]}
{"smiles": "C=CCC(c1ccccc1)n1c(=O)oc2cc(S(=O)(=O)Nc3ncns3)ccc21", "note": "(stereo not shown) [Compound 4-13, 2-oxo-3-(1-phenylbut-3-en-1-yl)-N-1,2,4-thiadiazol-5-yl-2,3-dihydro-1,3-benzoxazole-6-sulfonamide]", "values": [{"measurement": "IC50", "setting": "[2]", "result": 272, "unit": "nM"}, {"measurement": "ratio of Nav 1.5:Nav 1.7 potency, determined by PatchXpress measurement", "setting": "[3]", "result": 177}, {"measurement": "IC50", "setting": "[4]", "result": 88, "unit": "nM"}]}
{"smiles": "CCCN1CCc2cccc(Cn3c(=O)oc4cc(S(=O)(=O)Nc5ncns5)ccc43)c2C1", "note": "[Compound 6-3, 2-oxo-3-[(2-propyl-1,2,3,4-tetrahydroisoquinolin-8-yl)methyl]-N-1,2,4-thiadiazol-5-yl-2,3-dihydro-1,3-benzoxazole-6-sulfonamide]", "values": [{"measurement": "IC50", "setting": "[2]", "result": 642, "unit": "nM"}]}
{"smiles": "CC(c1ccccn1)n1c(=O)oc2cc(S(=O)(=O)Nc3ncns3)c(F)cc21", "note": "(stereo not shown) [Compound 13-6, 5-fluoro-2-oxo-3-(1-pyridin-2-ylethyl)-N-1,2,4-thiadiazol-5-yl-2,3-dihydro-1,3-benzoxazole-6-sulfonamide]", "values": [{"measurement": "ratio of Nav 1.5:Nav 1.7 potency, determined by IonWorks measurement", "setting": "[1]", "result": "> 511"}, {"measurement": "IC50", "setting": "[2]", "result": 65, "unit": "nM"}]}
